Legend:
K. pneumoneae 270 = experiment: Radial diffusion assay in agarose gels, K. pneumoniae; type: cell-based
[1] = system: lipid polysaccharide (LPS) of E. coli strain 0.55B5; experiment: Limulus amebocyte lysate (LAL) test for endotoxin binding; type: biochemical; settings: for gel formation in LAL test: LPS 0.05 endotoxin unit/ml
[2] = target: human leukocyte cathepsin G (Homo sapiens, UniProt P08311); type: in vitro ADME; settings: pH 7
C. albicans, strain 820 = type: cell-based, Candida albicans
Method: Similarly, using C. albicans as a target organism, underlayers were prepared with 10 mM sodium phosphate with and without 10% normal human serum.

HIVJR-CSF and HIVJR-FL = experiment: HIV infection of human peripheral blood mononuclear cells, p24 antigen
[3] = system: Listeria monocytogenes, strain EGD; experiment: Radial diffusion assay in agarose gels, L. monocytogenes; type: cell-based
Method: Aliquots (66 μl) of each fraction were dried by vacuum centrifugation and resuspended in 6.6 μl of 0.01% acetic acid. Five μl samples of this concentrate were tested for antimicrobial activity against E. coliML-3, L. monocytogenes, strain EGD and C. albicans, strain 820, using radiodiffusion and gel overlay techniques as described by Lehrer, R. I. et al. J Immunol Meth (1991) 137:167-173. […] The units of activity in the radial diffusion assay were measured as described; 10 units correspond to a 1 mm diameter clear zone around the sample well. Activity was found in a large number of fractions.
The radial diffusion assay in agarose gels described in Example 1 was also used to test the activity of the purified protegrins. FIGS. 4a, 4b and 4c show the results against three test organisms in units described as above.
The antimicrobial activity of the linearalized forms was also compared with that of the native protegrins. Both linearalized and cyclic forms of the protegrins tested continue to show antimicrobial activity, although the effectiveness of these peptides as antimicrobials depends on the nature of the target organism and on the test conditions. The antimicrobial activity of native PG-1 and its linearalized form (cam-PG-1) and PG-3 and its linearalized form (cam-PG-3) were tested according to the procedure set forth in Example 1 as described by Lehrer, R. I. et al. J Immunol Meth (1991) 137:167-173.
Using standard solid phase techniques, a protegrin having the amino acid sequence of PG-1, but wherein every amino acid is in the D form was prepared. This form of protegrin was tested against E. coli, L. monocytogenes, C. albicans and other microbes in the absence and presence of protease and otherwise as described for the radiodiffusion assay in agarose gels set forth in Example 1.
The kite and bullet PG-1 compounds prepared in Example 12 were tested for antimicrobial activity using the radial diffusion assay described in Example 1 as published by Lehrer, R. I. et al., J Immunol Meth (1991) 137:167-173, except that the underlay agars contained […] sodium phosphate buffer with a final pH of 7.4. As described in Example 1, 0.3 mg/ml tripticase soy broth powder and 1% agarose were used as well in the underlay agar. In some cases 100 mM NaCl or RPMI plus 2.5% normal human serum (NHS) was added to the agar.

[4] = system: N. gonorrhoeae strains FA 19 and F 62
Method: Nonpiliated transparent variants of strains FA 19 and F 62 were propagated on GCB agar plates containing glucose and iron supplements overnight at 37° C. under 3.8% V/V CO2. These strains were chosen for their adaptability to the assay.
The overnight growth is removed from the agar plate and suspended in GCB broth containing supplements and sodium bicarbonate and grown with shaking at 37° C. to mid log phase. The culture is diluted 1:100 in GCB broth to give about 10^6 CFU/ml and serial dilutions were plated onto GCB agar.
Ten μl of each dilution is added to a sterile polystyrene tube containing 90 μl of diluted bacteria and the tubes are shaken at 37° C. for 45 minutes. The contents are serially diluted 1:10 and plated on to GCB agar plates which are incubated in a CO2 incubator. CFU are counted after 24 hours and the log bactericidal activity calculated.

Staphylococcus aureus = experiment: Radial diffusion assay in agarose gels, S. aureus; type: cell-based
[5] = system: Trichomonas vaginallis strain C1 (ATCC 30001); strains MR and TV; experiment: Trichomonas vaginallis exposure assay
pepsin = settings: 4 hours at pH 2.0 with 0.5 μg/ml pepsin, then neutralized
T. pallidum = experiment: Treponema pallidum immobilization assay; type: cell-based
Method: Bacteriocidal activity against this organism, which is the etiologic agent of syphilis, was also tested. Peptides were evaluated at a series of concentrations of 1.758 μg to 56.25 μg in 90 μl of unheated normal rabbit serum. The serum served as a nutrient for the spirochetes to allow their survival during incubation as well as providing a source of complement. Ten μl of a suspension of T. pallidum containing about 5×10^7/μl organisms was added to each tube and the mixtures with the appropriate peptides were incubated at 34° C. under 95 k N2 and 5% CO2. At time zero, just prior to incubation, 4 hours and 16 hours, 25 randomly selected organisms were examined for the presence or absence of motility. The 50 k immobilizing end point (IE50) was calculated to indicate the concentration needed to immobilize 50% of the spirochetes.

human leukocyte elastase = human leukocyte elastase (Homo sapiens, UniProt P08246); type: in vitro ADME; settings: pH 7
Sequence of human leukocyte elastase (P08246 30-267): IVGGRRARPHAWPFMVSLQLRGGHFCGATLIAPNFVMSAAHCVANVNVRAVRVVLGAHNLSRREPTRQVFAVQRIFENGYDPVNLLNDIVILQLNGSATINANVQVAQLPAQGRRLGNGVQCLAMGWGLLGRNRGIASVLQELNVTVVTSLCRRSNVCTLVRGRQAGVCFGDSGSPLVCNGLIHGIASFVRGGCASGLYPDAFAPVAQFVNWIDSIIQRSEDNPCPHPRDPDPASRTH

E. coli ML-35P = experiment: Radial diffusion assay in agarose gels, E. coli; type: cell-based
Method: Aliquots (66 μl) of each fraction were dried by vacuum centrifugation and resuspended in 6.6 μl of 0.01% acetic acid. […] The units of activity in the radial diffusion assay were measured as described; 10 units correspond to a 1 mm diameter clear zone around the sample well.

[6] = radial diffusion, underlay agar pH 6.5

Sequence of human leukocyte cathepsin G (P08311 21-244): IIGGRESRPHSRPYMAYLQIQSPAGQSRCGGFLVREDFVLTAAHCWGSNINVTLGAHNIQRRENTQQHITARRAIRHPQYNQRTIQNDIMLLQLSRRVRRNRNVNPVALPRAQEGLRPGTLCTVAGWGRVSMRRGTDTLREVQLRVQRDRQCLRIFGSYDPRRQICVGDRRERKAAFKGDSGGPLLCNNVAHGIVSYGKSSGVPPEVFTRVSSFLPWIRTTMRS

Question: How did the “antibacterial activity against K. pneumoneae (FIG. 4e)” value (K. pneumoneae 270) turn out when CC(C)C[C@H](NC(=O)[C@H](CCCNC(=N)N)NC(=O)CNC(=O)CNC(=O)[C@@H](N)CCCNC(=N)N)C(=O)N[C@H]1CSSC[C@@H](C(=O)N[C@H](C(=O)NCC(=O)N[C@@H](CCCNC(=N)N)C(N)=O)C(C)C)NC(=O)[C@H](C(C)C)NC(=O)[C@@H]2CSSC[C@H](NC(=O)[C@H](Cc3ccc(O)cc3)NC1=O)C(=O)N[C@@H](CCCNC(=N)N)C(=O)N[C@@H](CCCNC(=N)N)C(=O)N[C@@H](CCCNC(=N)N)C(=O)N[C@@H](Cc1ccccc1)C(=O)N2 [PG-1, R-G-G-R-L-C-Y-C-R-R-R-F-C-V-C-V-G-R] was run?
Answer: Its value is “inhibit the growth”.

Question: And the “gel formation in LAL test” value ([1]; 1.0 μg peptide in 0.2 ml)?
Answer: Its value is “no gel”.

Question: And the “gel formation in LAL test, cyclic vs linearalized (Table 3)” value ([1]; 2.5 μg peptide)?
Answer: The value was “no gel”.

Question: What about the “gel formation in LAL test” value ([1]; 2.5 μg peptide in 0.2 ml) of the same compound?
Answer: The value was “no gel”.

Question: And the “gel formation in LAL test, cyclic vs linearalized (Table 3)” value ([1]; 5 μg peptide)?
Answer: The value was “no gel”.

Question: What about the “gel formation in LAL test” value ([1]; 5 μg peptide in 0.2 ml) of the same compound?
Answer: Its value is “no gel”.

Question: And the “gel formation in LAL test” value ([1]; 10 μg peptide in 0.2 ml)?
Answer: Its value is “no gel”.

Question: And the “degradation by human leukocyte cathepsin G” value [2]?
Answer: Its value is “not degraded”.

Question: And the “activity against C. albicans in NaCl (FIG. 5a)” value (C. albicans, strain 820; in the presence of 100 mM NaCl)?
Answer: Its value is “retain their activity”.

Question: And the “antifungal activity against Candida albicans (FIG. 4c)” value (C. albicans, strain 820; [6])?
Answer: Its value is “effective”.

Question: And the “Activity against human STD pathogens: HIV-1” value (HIVJR-CSF and HIVJR-FL)?
Answer: The value was “Active”.

Question: What about the “antiviral activity by time of addition” value (HIVJR-CSF and HIVJR-FL; 2 hours prior to virus, at the time of virus, or 2 hours after infection) of the same compound?
Answer: The value was “showed antiviral activity”.

Question: What about the “antiviral activity by time of addition” value (HIVJR-CSF and HIVJR-FL; added 24 hours after infection) of the same compound?
Answer: Its value is “no antiviral activity”.

Question: And the “inhibition of growth of L. monocytogenes (FIG. 12d)” value ([3]; absence of proteases)?
Answer: The value was “comparably active”.

Question: And the “inhibition of growth of L. monocytogenes (FIG. 12c)” value ([3]; presence of trypsin, chymotrypsin)?
Answer: The value was “adversely affected”.

Question: What about the “antibacterial activity against Listeria monocytogenes (FIG. 4b)” value [3, 6] of the same compound?
Answer: Its value is “effective”.

Question: What about the “Activity against human STD pathogens: Neisseria gonorrhoeae” value [4] of the same compound?
Answer: The value was “Active”.

Question: What about the “antibacterial activity against S. aureus (FIG. 4d)” value (Staphylococcus aureus) of the same compound?
Answer: Its value is “inhibit the growth”.

Question: And the “Activity against human STD pathogens: Trichomonas vaginalis” value [5]?
Answer: The value was “Moderately”.

Question: What about the “growth in Diamond's medium after exposure” value ([5]; strain C1, 50 μg/ml) of the same compound?
Answer: Its value is “failed to grow”.

Question: What about the “motility of T. vaginallis” value ([5]; strain C1, 50 μg/ml, RPMI+1% fetal calf serum, within a few minutes) of the same compound?
Answer: Its value is “became stationary”.

Question: And the “lysis of T. vaginallis” value ([5]; strain C1, 50 μg/ml, over the ensuing 15-30 minutes)?
Answer: The value was “lysed”.

Question: What about the “susceptibility of metronidazole-resistant clinical isolates” value ([5]; strains MR and TV, 100 and 50 μg/ml) of the same compound?
Answer: Its value is “susceptible”.

Question: And the “residual antimicrobial activity against C. albicans, E. coli and L. monocytogenes after pepsin” value (pepsin)?
Answer: Its value is “fully retained”.

Question: What about the “Activity against human STD pathogens: Treponema pallidum” value (T. pallidum) of the same compound?
Answer: The value was “Active”.

Question: And the “degradation by human leukocyte elastase” value (human leukocyte elastase)?
Answer: The value was “not degraded”.

Question: What about the “inhibition of growth of E. coli (FIG. 12a)” value (E. coli ML-35P; absence of protease) of the same compound?
Answer: Its value is “equally effective”.

Question: What about the “activity against E. coli in NaCl (FIG. 5b)” value (E. coli ML-35P; in the presence of 100 mM NaCl) of the same compound?
Answer: Its value is “retain their activity”.

Question: What about the “antibacterial activity against E. coli (FIG. 4a)” value (E. coli ML-35P; [6]) of the same compound?
Answer: The value was “more effective against E. coli ML-35P than HNP-1 and only slightly less effective than NP-1”.
